Data published in PMC12040169 (PLOS Biology, 2025).

Experiment: in vitro
Conditions: human, hela cells, % viability

Compound	viability at 28.5 h, 10 µM	viability at 28.5 h, 10 µM (bulk resorufin, single well)
CC(=O)Nc1ccc(-c2cc(Nc3ccc(NC(=O)c4ccc(N)cc4)cc3)ncn2)cc1 [CBK091103]	97%	
Cc1cc(NC(=O)COc2ccccc2)nc2c1c(=O)oc1ccccc12 [CBK287436]	99.8%	
C=C(C)Cn1c(SC(C)C)nnc1-c1ccccc1Cl [CBK200079]	99.9%	
CC(=O)Nc1ccc(-c2nc3c4ccccc4c4ccc(I)cc4c3[nH]2)cc1 [CBK262667]	100%	
COc1cc(S(=O)(=O)N2CCN(S(=O)(=O)c3cccc([N+](=O)[O-])c3)CC2)ccc1Cl [CBK266285]	89.6%	
Cc1cccc(OCCNC(=O)CN2CCCC2c2cnn(C)c2)c1 (stereo not shown) [CBK305826]	81%	
Cc1cc(NS(=O)(=O)c2c(C)nn(C)c2Cl)n(C)n1 [CBK067245]	99.9%	
Cn1nccc1C(=O)C1CCN(C(=O)c2cccc(F)c2)CC1 [CBK284426]	89.2%	
O=C(NCC1CCNCC1)c1ccncc1 [CBK267637C]	95%	
COc1ccc(-c2cc3ccc(OC(C)C(=O)O)cc3oc2=O)cc1 (stereo not shown) [CBK267947]	101%	
CC(C)(C)CC(=O)N1CCCC1c1n[nH]cc1-c1ccncc1 (stereo not shown) [CBK283430]	88.5%	
COCc1cccc(Nc2ncnc3c2cnn3CCC#N)c1 [CBK305983]	83.2%	
C#CCNC(=O)CC[C@H]1CNC(=O)[C@@H]2[C@@H](CCN2CC(C)(C)C)N1C [CBK289035]	95.1%	
CCN(CC)C(=O)Cn1nc2c(C)cc3ccccc3n2c1=O [CBK283879]	84.1%	
Cc1cc(-c2cn3cc(C(=O)N(C)CC(C)O)nc3c(=O)n2C)c(C)o1 (stereo not shown) [CBK307154]	88%	
N#CC(C(N)=O)C(c1ccc(Br)cc1)c1c(-c2ccccc2)nn(-c2nc(-c3ccccc3)cs2)c1O (stereo not shown) [CBK262697]	107%	
COc1cc(OC)c(NC(=O)C(C)Oc2cccc(C)c2)cc1Cl (stereo not shown) [CBK268646]	107%	
CCCC(C(=O)NC(C)(C)CN1CCCCC1)n1nc(C)cc1C (stereo not shown) [CBK282061]	94.8%	
O=C(CSCc1c(Cl)cccc1Cl)Nc1ccc(-c2nnc(-c3ccccc3)o2)cc1 [CBK267817]	99.7%	
Cc1cc(C)n2nc(SCc3nc4sc(C(=O)O)c(C)c4c(=O)[nH]3)nc2n1 [CBK297482]	88.1%	
Cc1nc(C2CC(O)C2)cc(N2CCC(C(=O)N3CCOCC3)CC2)n1 (stereo not shown) [CBK307675]	102%	
CN(C)/C=N/c1nc(=O)[nH]c2c1ncn2C1CC(O)C(CO)O1 (stereo not shown) [CBK201285]	118%	

Compound	viability at 28.5 h, 10 µM	viability at 28.5 h, 10 µM (bulk resorufin, single well)
CCCS(=O)(=O)N1CCC2(CCCN(Cc3cccc(F)c3F)C2=O)C1 (stereo not shown) [CBK306694]	90.8%	
Cc1cc(/C=N\NC(=O)c2cc3ccccc3cc2O)c(C)n1-c1ccccc1 [CBK261801]	84.6%	
Cc1ccc(C(=O)C(OC(=O)c2cc(O)nc3ccccc23)c2ccccc2)cc1C (stereo not shown) [CBK265515]	90.9%	
N#Cc1cccc(CN2CC[C@H](c3nnc(-c4ccco4)o3)C2)c1 [CBK289394]	92.5%	
CC1CCCCN1C(=O)CN1C(=O)N2CCN=C2c2ccccc21 (stereo not shown) [CBK283921]	102%	
CC(=O)Nc1ccc(S(=O)(=O)NC2(C(F)(F)F)C(=O)Nc3c2c(=O)[nH]c(=S)n3Cc2ccco2)cc1 (stereo not shown) [CBK268395]	96.8%	
Cc1onc(-c2ccccc2Cl)c1C(=O)Nc1ccc(S(=O)(=O)NCC2CCCO2)cc1 (stereo not shown) [CBK267536]	88.9%	
O=C(O)c1cc(Sc2nnnn2-c2ccccc2)c2ccccc2c1O [CBK006925]	87.8%	
O=C(NC1CCNCC1)c1cc2ccccc2[nH]1 [CBK168609]	84.6%	
O=C(NCCN1CCOCC1)c1cnn2c(-c3ccccc3)cc(-c3ccccc3)nc12 [CBK263062]	94.5%	
O=C(NCCCn1ccnc1)c1cc(-c2cccc(Br)c2)nc2ccccc12 [CBK265476]	91.4%	
CCc1cc2c3c(c(=O)oc2cc1OCc1cc(C(=O)O)oc1C)CCCC3 [CBK264402]	98.8%	
O=c1[nH]cnc2c1ncn2[C@H]1C[C@@H](O)[C@@H](CO)O1 [CBK201225]	99.5%	
Cc1nc2cc(C(=O)NC(C)c3ccccn3)ccc2n1C (stereo not shown) [CBK281822]	84.2%	
Nn1cnnc1SC1CCCCC1NS(=O)(=O)c1ccccc1 (stereo not shown) [CBK266361]	95.7%	
COc1ccc(-c2ccc(=O)n3c2[C@@H]2C[C@@H](CN(C(=O)NC4CCCCC4)C2)C3)cc1 [CBK289189]	82.1%	
CCN1CCCC(CNS(=O)(=O)c2cc(-n3cccn3)ccc2OC)C1 (stereo not shown) [CBK306997]	85.3%	
CCc1cc2cc3c(cc2nc1SCC(=O)Nc1cc(OC)ccc1OC)OCO3 [CBK108546]	91.8%	
C[C@@H](c1ccccc1)n1c(=O)[nH]c2ncc(-c3cccc4ncccc34)nc21 [CBK064394]	116%	
O=C(Nc1ccccc1)c1cc2sccc2s1 [CBK057696]	87.9%	
COCCn1c(SC(C)C(=O)N2CCOCC2)nc2cc(Cl)ccc21 (stereo not shown) [CBK305580]	94.8%	
N#Cc1cccc(-c2cnc(N)c(-c3ccc(O)cc3)n2)c1 [CBK115630]	98%	

Compound	viability at 28.5 h, 10 µM	viability at 28.5 h, 10 µM (bulk resorufin, single well)
CC1CCc2c(sc3ncn(C4CCNCC4)c(=O)c23)C1 (stereo not shown) [CBK282349]	91.4%	
Cc1cc(C(=O)NC(Cc2ccncc2)C2CC(O)C2)c(C)o1 (stereo not shown) [CBK307181]	96.5%	
O=C(O)C1CC=CCC1C(=O)NCCCCc1ccccc1 (stereo not shown) [CBK265460]	98.7%	
CN(C)CCN(Cc1ccncc1)Cc1ccsc1 [CBK283206]	102%	
O=C(CC(NC1CCCC1)C(=O)O)Nc1cccc(Cl)c1 (stereo not shown) [CBK266831]	105%	
COc1cccc(NC(=O)NC(=O)C2CCN(C(C)C)CC2)c1 [CBK034798]	89.6%	
COc1cc(/C=N/O)ccc1Oc1ccc([N+](=O)[O-])cc1[N+](=O)[O-] [CBK261651]		92.5%
Fc1ccc(-c2cccc(Nc3ccc(Oc4ccccc4)cc3)n2)cc1Cl [CBK037699]	102%	
Cc1c(-c2ccc(Cl)cc2Cl)nc2ccccc2c1C(=O)NCCC(c1ccccc1)c1ccccc1 [CBK262634]	99.7%	
Nc1ncc(-c2cccc3cccnc23)nc1N1CCC[C@@H]1CO [CBK063470]	108%	
COc1cc(CN2CCN(Cc3ccco3)CC2)cc(OC)c1OC [CBK074520G]	88.2%	
COc1ccccc1-c1ccc(C(=O)N(C)CCN(C)C)c(N(C)C)n1 [CBK106075]	88.5%	
CC(C)(C)C(=O)Nc1ccc(-c2ccc(NC(=O)C(C)(C)C)c(C(=O)O)c2)cc1C(=O)O [CBK261392]	108%	
c1cnc2[nH]c([C@H]3CCCO3)c(CN3CCCCC3)c2c1 [CBK282284]	87.7%	
COc1ccccc1NC(=O)NC(=O)C1CCN(C(C)=O)CC1 [CBK034853]	119%	
O=S(=O)(/N=C/N1CCCC1)c1ccccc1 [CBK023272]	89.4%	
O=C(CSc1ccc2nnc(-c3ccccc3)n2n1)Nc1nccs1 [CBK287516]	98.6%	
CCNC(=O)O[C@@H]1CO[C@H]2[C@@H]1OC[C@@H]2NC(=O)Nc1ccc(C(C)=O)cc1 [CBK289473]	93.5%	
CN(c1ncc(-c2ccccc2)cc1C(=O)NCc1cccnc1)S(C)(=O)=O [CBK076507]	98.9%	
O=C(O)CCC(=O)Nc1ccc(NC(=O)C2CCCCC2)c(Cl)c1 [CBK268867]	89.3%	
O=C(O)C1CCN(C(=O)CSc2nc3ccccc3o2)CC1 [CBK286557]	91.6%	
CC(O)CNc1nccnc1-c1cccc(CO)c1 (stereo not shown) [CBK037056]	91.5%	

Compound	viability at 28.5 h, 10 µM	viability at 28.5 h, 10 µM (bulk resorufin, single well)
O=[N+]([O-])c1ccc2c(/C=N/c3ccc(-c4nc5ccccc5s4)cc3)c(O)ccc2c1 [CBK261483]	92.3%	
C[C@H]1CN(C(=O)c2cc(C3CC3)no2)[C@@H](C)CN1Cc1ccco1 [CBK281736]	106%	
Cc1nnc(N/N=C\c2ccco2)n1N [CBK028824C]	97.4%	
Cc1ccc(-c2oncc2C(=O)NCc2ccc(S(N)(=O)=O)cc2)cc1 [CBK154912]	102%	
O=C(O)Cc1nnnn1-c1ccccc1 [CBK262984]	102%	
CC(C)(C)c1[nH]c2ncccc2c1CN1CCCC(CO)C1 (stereo not shown) [CBK285342]	99.1%	
O=C(O)CCCC(=O)N1CCN(C(=O)c2sc3cc(Cl)ccc3c2Cl)CC1 [CBK286973]	91%	
N#C/C(=C\c1ccc(-c2ccc(C(=O)O)cc2)o1)C(=O)NCc1ccco1 [CBK263322]	101%	
CCCCc1ccc(NC(=S)NN2CCN(C)CC2)cc1 [CBK265741]	97.1%	
CCOc1ccc(NC(=O)c2c[nH]c(=O)n(-c3ccc(F)cc3)c2=O)cc1 [CBK287553]	107%	
COc1cccc(CC(=O)N2CCC(Cc3ccc(-c4ccccc4)cc3)(C(N)=O)CC2)c1 [CBK285776]	94.2%	
CCCC/C=C/c1cn2ccnc2c(N2CCOCC2)n1 [CBK038031]	100%	
Cc1cc(F)ccc1S(=O)(=O)N1CCC2(CC1)CNC(=O)C2 [CBK283354]	104%	
O=C(Nc1cccnc1)c1cc2cc(OC(F)(F)F)ccc2[nH]1 [CBK107313]	95.1%	
O=C(c1cc(S(=O)(=O)NCc2ccco2)c(Cl)cc1Cl)N1CCCC1 [CBK306076]	87.8%	
CN(CCc1cn[nH]c1)C(=O)CCc1ccc(Cl)cc1 [CBK283183]	91.1%	
CC(N)c1cc2ccccc2o1 (stereo not shown) [CBK001492C]		97.7%
C/C(=N\N)c1ccc2[nH]c3c(c2c1)CCC/C3=N\N [CBK261812]	81.2%	
CC(C)CN(C)CC(=O)NC1(c2ccccc2)CCC1 [CBK067455T]	111%	
CN(C)CCCN[C@H]1CC[C@@H](c2ccccc2)CC1 [CBK016465]	96.2%	
O=C(NC(C(=O)N/N=C/c1ccc(O)cc1)c1n[nH]c(=O)c2ccccc12)c1ccccc1 (stereo not shown) [CBK262839]	116%	
O=C(c1cncnc1)N1CCCc2ccccc21 [CBK200259]	91.4%	
